From PMC10244465, “Native American ataxia medicines rescue ataxia-linked mutant potassium channel activity via binding to the voltage sensing domain” (Nature Communications, 2023)
Like-named read-outs stand apart in the source and are kept apart here.

Tests used:
wild-type Kv1.1 = system: wild-type Kv1.1; set-up: method as in PMID 28391996; conditions: prepulse current at −50 mV, 10 µM; cited from earlier work
wild-type human Kv1.1 = molecular target: T1, wild-type human Kv1.1 (Homo sapiens, UniProt Q09470); experiment: Two-electrode voltage clamp of oocytes expressing wild-type Kv1.1; assay type: cell-based; conditions: for effect on Kv1.1 activity: compound 100 µM; for EM (unclamped oocyte membrane potential) / Slope / V0.5 Normalized tail current: in presence of 100 µM compound
T1 construct: expressed in transfected cells; host or cells: Xenopus laevis oocytes injected with cRNA (pTLNx vector)
T1 sequence (Q09470 whole entry): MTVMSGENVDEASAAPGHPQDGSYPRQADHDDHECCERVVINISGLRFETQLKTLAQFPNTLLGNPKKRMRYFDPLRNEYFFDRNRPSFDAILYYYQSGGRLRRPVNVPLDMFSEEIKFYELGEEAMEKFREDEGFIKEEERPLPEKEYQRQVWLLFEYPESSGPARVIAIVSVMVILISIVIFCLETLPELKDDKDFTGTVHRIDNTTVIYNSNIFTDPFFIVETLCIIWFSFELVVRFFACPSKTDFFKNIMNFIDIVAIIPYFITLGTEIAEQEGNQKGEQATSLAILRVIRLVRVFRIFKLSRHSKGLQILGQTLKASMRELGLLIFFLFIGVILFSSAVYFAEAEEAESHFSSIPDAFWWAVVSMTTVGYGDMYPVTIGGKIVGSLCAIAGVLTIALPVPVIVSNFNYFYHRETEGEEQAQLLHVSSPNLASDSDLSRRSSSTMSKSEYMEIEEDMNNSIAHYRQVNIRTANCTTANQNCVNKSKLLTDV
Description: Wild-type and mutant Kv1 cDNAs were generated (Genscript, Piscataway, NJ) in the pTLNx expression vector. As previously described, we generated cRNA transcripts encoding human Kv1.1 (wild-type and mutant) and Kv1.2, by in vitro transcription using the mMessage mMachine kit (Thermo Fisher Scientific), after vector linearization, from cDNA sub-cloned into plasmids (pTLNx) incorporating Xenopus laevis β-globin 5’ and 3’ UTRs flanking the coding region to enhance translation and cRNA stability. We injected defolliculated stage V and VI Xenopus laevis oocytes (Xenoocyte, Dexter, MI, US) with Kv1 cRNAs (1–5 ng). We incubated the oocytes at 16 °C in ND96 oocyte storage solution containing penicillin and streptomycin, with daily washing, for 2 days prior to two-electrode voltage-clamp (TEVC) recording.
We performed TEVC at room temperature using an OC-725C amplifier (Warner Instruments, Hamden, CT) and pClamp10 software (Molecular Devices, Sunnyvale, CA) 2 days after cRNA injection as described in the section above. For recording, oocytes we placed in a small-volume oocyte bath (Warner) and viewed with a dissection microscope. We sourced chemicals from Sigma. We studied effects of plant extracts and of compounds, solubilized directly in bath solution (in mM): 96 NaCl, 4 KCl, 1 MgCl2, 1 CaCl2, 10 HEPES (pH 7.6). We introduced extracts or compounds into the oocyte recording bath by gravity perfusion at a constant flow of 1 ml per minute for 3 min prior to recording. Pipettes were of 1–2 MΩ resistance when filled with 3 M KCl. We recorded currents in response to voltage pulses between −80 mV and +40 mV at 10 or 20 mV intervals from a holding potential of −80 mV, to yield current-voltage relationships and examine activation kinetics. To calculate the voltage dependence of activation (V0.5), tail currents were recorded at a voltage pulse of −50 mV immediately following prepulse voltages between −80 mV and +40 mV. We analyzed data using Clampfit (Molecular Devices) and Graphpad Prism software (GraphPad, San Diego, CA, USA), stating values as mean ± SEM. We plotted raw or normalized tail currents vs. prepulse voltage and fitted with a single Boltzmann function:1 g=(A1−A2)/1+exp[V1/2−V/Vs]y+A2 where g is the normalized tail conductance, A1 is the initial value at -∞, A2 is the final value at +∞, V1/2 is the half-maximal voltage of activation and Vs the slope factor.

[1] = set-up: method as in earlier work; conditions: following massage with lavender oil; cited from earlier work
Kv1.1-L328V channels = molecular target: T2, Kv1.1-L328V channels (Homo sapiens, UniProt Q09470, L328V); experiment: TEVC of oocytes expressing 100% Kv1.1-L328V; assay type: cell-based; conditions: compound 1 µM
T2 construct: expressed in transfected cells; host or cells: Xenopus laevis oocytes
T2 sequence (Q09470 whole entry L328V): as the sequence (Q09470 whole entry) above, with L328V counted along it
Description: (§1) EA1 mutant G311D is in the S4-5 linker of Kv1.1 (Fig. 5a) and produces a 65% prepulse current reduction both in Kv1.1-G311D and in Kv1.1/Kv1.1-G311D channels[43],[44]; either channel type was minimally responsive to the plant extracts tested (Supplementary Figs. 3 and 4). EA1 mutant L328V (which is associated with tetany and hypomagnesemia) is located in the intracellular end of Kv1.1 S5 (Fig. 5a) and results in complete current loss in a dominant negative manner, i.e., Kv1.1-L328V and Kv1.1/Kv1.1-L328V channels are each nonfunctional. The traditional ataxia remedy plant extracts were unable to rescue Kv1.1-L328V or Kv1.1/Kv1.1-L328V function (Supplementary Figs. 5 and 6). EA1 mutant V408A is in the intracellular-proximal end of Kv1.1 S6 (Fig. 5a) and reduces current, speeds deactivation, and increases C-type inactivation of Kv1.1[46]. Here, Native American ataxia remedy extracts had relatively minor effects on Kv1.1-V408A activity, with nettle and Pacific ninebark (roots or leaves) inducing hyperpolarizing shifts in EM, and Pacific ninebark leaves inducing a negative shift in the voltage dependence of activation, although this was not quantifiable due to the very small tail currents (Supplementary Fig. 7). Effects of the extracts on Kv1.1/Kv1.1-V408A activity were also relatively minor (Supplementary Fig. 8). […]
(§2) We performed TEVC at room temperature using an OC-725C amplifier (Warner Instruments, Hamden, CT) and pClamp10 software (Molecular Devices, Sunnyvale, CA) 2 days after cRNA injection as described in the section above. […] We recorded currents in response to voltage pulses between −80 mV and +40 mV at 10 or 20 mV intervals from a holding potential of −80 mV, to yield current-voltage relationships and examine activation kinetics. To calculate the voltage dependence of activation (V0.5), tail currents were recorded at a voltage pulse of −50 mV immediately following prepulse voltages between −80 mV and +40 mV. We analyzed data using Clampfit (Molecular Devices) and Graphpad Prism software (GraphPad, San Diego, CA, USA), stating values as mean ± SEM. […]

wild-type human Kv1.2 = molecular target: T3, wild-type human Kv1.2 (Homo sapiens, UniProt P16389); experiment: Two-electrode voltage clamp of oocytes expressing wild-type Kv1.2; assay type: cell-based
T3 construct: expressed in transfected cells; host or cells: Xenopus laevis oocytes injected with cRNA (pTLNx vector)
T3 sequence (P16389 whole entry): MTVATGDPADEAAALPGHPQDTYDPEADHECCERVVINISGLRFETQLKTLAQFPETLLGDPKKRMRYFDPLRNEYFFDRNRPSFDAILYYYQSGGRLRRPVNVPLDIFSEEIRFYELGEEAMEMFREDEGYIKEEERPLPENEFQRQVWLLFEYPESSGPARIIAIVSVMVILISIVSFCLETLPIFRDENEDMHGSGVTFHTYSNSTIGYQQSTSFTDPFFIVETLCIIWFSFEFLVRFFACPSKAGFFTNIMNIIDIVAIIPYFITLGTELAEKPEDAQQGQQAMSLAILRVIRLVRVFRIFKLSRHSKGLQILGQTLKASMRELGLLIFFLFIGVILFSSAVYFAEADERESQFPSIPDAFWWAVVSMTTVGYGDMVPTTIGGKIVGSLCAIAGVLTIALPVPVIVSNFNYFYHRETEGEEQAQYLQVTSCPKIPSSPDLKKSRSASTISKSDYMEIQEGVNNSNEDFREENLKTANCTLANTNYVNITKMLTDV
Method: We therefore first tested for activity of extracts (diluted 1:50 in bath solution to equal 5 mg plant solid starting material per ml) of each of the three plants on wild-type human Kv1.1 and closely related Kv1.2 expressed in Xenopus laevis oocytes, using manual two-electrode voltage clamp (TEVC). Strikingly, all three extracts altered Kv1 channel activity. […] Pacific ninebark (roots or leaves) had similar effects on Kv1.1 but negligible effects on Kv1.2.
We purchased live Urtica dioica (Common Nettle) from Crimson Sage Nursery (Orleans, CA, USA), cultivated it in Irvine CA, collected the aerial portions (primarily leaves) and then froze them until the day of extraction. We purchased Physocarpus capitatus (Pacific ninebark) live whole plant from Ozark Wildflower Company (Jasper, AR, USA) and separated the roots and aerial parts before extraction of each. We homogenized plant samples using a bead mill with porcelain beads in batches in 50 ml tubes (Omni International, Kennesaw, GA, United States). We purchased certified organic tree bark powders from Mountain Rose Herbs (Eugene, OR, USA) and dry raw Sophora japonica (fine pellets) from Teriya (People’s Republic of China). We purchased bladderwrack kelp extract capsules from Terra Vita (Brampton, Ontario, Canada) and discarded the outer capsule before extraction. We resuspended all plant powders and homogenates in 80% methanol/20% water (100 ml per 5 g solid) and then incubated for 48 h at room temperature, occasionally inverting the bottles to resuspend the extracts. We next filtered the extracts through Whatman filter paper #1 (Whatman, Maidstone, UK), and then removed the methanol using evaporation in a fume hood for 24–48 h at room temperature. We next centrifuged extracts for 10 min at 15 °C, 4000 RCF to remove the remaining particulate matter, followed by storage at −20 °C. On the day of electrophysiological recording, we thawed the extracts and diluted them 1:50 in bath solution (see below), to equal 5 mg plant solid starting material per ml, immediately before use.
Wild-type and mutant Kv1 cDNAs were generated (Genscript, Piscataway, NJ) in the pTLNx expression vector. […]
as §2, with “mV.” for “mV. We analyzed data using Clampfit (Molecular Devices) and Graphpad Prism software (GraphPad, San Diego, CA, USA), stating values as mean ± SEM.”

Kv1.1-E283K channels = molecular target: T4, Kv1.1-E283K channels (Homo sapiens, UniProt Q09470, E283K); experiment: TEVC of oocytes injected with 100% Kv1.1-E283K cRNA; assay type: cell-based; conditions: compound 1 µM
T4 construct: expressed in transfected cells; host or cells: Xenopus laevis oocytes
T4 sequence (Q09470 whole entry E283K): as the sequence (Q09470 whole entry) above, with E283K counted along it

Kv1.1-V408A channels = molecular target: T5, Kv1.1-V408A channels (Homo sapiens, UniProt Q09470, V408A); experiment: TEVC of oocytes expressing 100% Kv1.1-V408A; assay type: cell-based; conditions: compound 1 µM
T5 construct: expressed in transfected cells; host or cells: Xenopus laevis oocytes
T5 sequence (Q09470 whole entry V408A): as the sequence (Q09470 whole entry) above, with V408A counted along it
Description: as §1, §2

[2] = dose response, Fig. 4, read-out: EC50 for ΔV0.5activation

SMILES | effect on Kv1.1 activity (wild-type human Kv1.1) | EM (unclamped oocyte membrane potential) (wild-type human Kv1.1) [mV] | Slope (wild-type human Kv1.1) [mV] | V0.5 Normalized tail current (wild-type human Kv1.1) [mV] | also measured
C=C[C@@]1(C)C=C2CC[C@@H]3[C@](C)(CCC[C@@]3(C)C(=O)O)[C@H]2CC1 [Pimaric acid] |  |  |  |  | increase of wild-type Kv1.1 currents (wild-type Kv1.1): up to eightfold
O.Oc1cc(O)c2c(c1)O[C@H](c1ccc(O)c(O)c1)[C@@H](O)C2 [catechin hydrate] | did not alter Kv1.1 activity | -31.33 ± 2.31 | 5.83 ± 0.38 | -14.70 ± 0.44 | 
O=c1cccc2n1C[C@@H]1CNC[C@H]2C1 [cytisine] | did not alter Kv1.1 activity | -41.60 ± 1.77 | 8.15 ± 1.31 | -23.96 ± 1.37 | 
O=c1c(O)c(-c2ccc(O)cc2)oc2cc(O)cc(O)c12 [kaempferol] | did not alter Kv1.1 activity | -45.25 ± 1.83 | 8.68 ± 0.87 | -22.40 ± 0.84 | 
C=CC(C)(O)CCC=C(C)C (stereo not shown) [linalool] |  |  |  |  | time to peak levels in the blood [1]: under 20 min
C=CC(C)(CCC=C(C)C)OC(C)=O (stereo not shown) [linalyl acetate] |  |  |  |  | time to peak levels in the blood [1]: under 20 min
O=C1CCC[C@@H]2[C@H]3CCC[N+]4([O-])CCC[C@@H](CN12)[C@@H]34 (stereo partly shown) [oxymatrine] | no effect | -39.88 ± 2.34 | 8.73 ± 0.24 | -21.86 ± 0.64 | 
O=c1c(O)c(-c2ccc(O)c(O)c2)oc2cc(O)cc(O)c12 [quercetin] | did not alter Kv1.1 activity | -43.50 ± 1.46 | 6.00 ± 1.06 | -25.12 ± 1.81 | 
C[C@@H]1O[C@@H](OC[C@H]2O[C@@H](Oc3c(-c4ccc(O)c(O)c4)oc4cc(O)cc(O)c4c3=O)[C@H](O)[C@@H](O)[C@@H]2O)[C@H](O)[C@H](O)[C@H]1O [rutin] | lesser but still robust opening effect | -56.75 ± 0.28 | 11.79 ± 2.88 | -31.59 ± 3.22 | EC50 (wild-type human Kv1.1; [2]): 385 ± 12 nM; EC50 (wild-type human Kv1.1; oocytes expressing wild-type Kv1.1, read-out: EC50 for hyperpolarization of EM): 150 ± 38 nM; effect on channel activity (Kv1.1-L328V channels): ineffective; EC50 (wild-type human Kv1.2; [2]): 72 ± 16 nM; EC50 (wild-type human Kv1.2; oocytes expressing Kv1.2, read-out: EC50 for hyperpolarization of EM): 406 ± 62 nM; effect on channel activity (Kv1.1-E283K channels): ineffective; effect on channel activity (Kv1.1-V408A channels): ineffective
